Here are results for 1 substance from US10265383B2, “Treatment of radiation injury using ghrelin” (priority 2014, dated 2019).

Where no end group is shown, it is not given here. The star is where a group is joined. Octanoyl = CCCCCCCC(=O)*

What all share (type): in vivo, rat
In test [1] the test system is rats exposed to 10 Gy WBI. Briefly: Survival study after whole body irradiation (WBI). The following applies: 10 Gy WBI rats, 30 day observation, vehicle 30%. The protocol:
Experimental animals. Male Sprague-Dawley (SD) rats (250-350 g) purchased from Charles River Laboratories (Wilmington, Mass., USA) were used. The rats were housed in a temperature-controlled room on a 12-h light/dark cycle and fed on a standard Purina rat chow diet. Animal experimentation was carried out in accordance with the Guide for the Care and Use of Laboratory Animals. This project was approved by the Institutional Animal Care and Use Committee (IACUC) of the Feinstein Institute for Medical Research.
Animal model of whole body irradiation. […]
Survival study. To assess the survival benefits of human ghrelin, animals were exposed to 10 Gy WBI and treated with human ghrelin (20 nmol/rat) subcutaneously once a day, with the first dose given either at 24 h or 48 h after WBI, for 6 days and observed for 30 days, and the survival recorded. […] Rats in the survival study were monitored twice daily and weighed once a day during the 30 day survival period. Net weight change was calculated as: % Weight Change ((weight at each day−weight at day 0)/weight at day 0)×100.
Statistical analysis. All data are expressed as mean±SE and analyzed by one way analysis of variance (ANOVA) and compared using Student Newman Keul's test for multiple comparisons. […]

The subject of another test is ICAM-1. Briefly: Jejunal ICAM-1 mRNA expression by real time PCR. The following applies: jejunum, Day 7 after 10 Gy WBI; vehicle increased by 69%. The protocol:
(§1) Animal model of whole body irradiation. Rats were exposed to whole body irradiation (WBI) of 10 Gray (Gy) using a Gammacell® 1000 Irradiator (Atomic Energy of Canada Ltd) [radiation source: Cesium-137 (^137Cs)] delivered at a dose rate of about 2.5 GY/min. The animals were sedated with intra-peritoneal pentobarbital (40 mg/kg BW) prior to irradiation. During radiation, the container rotated continuously in front of the radiation source for even exposure. The animals were then returned to their cages, and food and water were provided.
Blood and Tissue Collection after WBI. Rats exposed to 10 Gy WBI were treated with 20 nmol/rat human ghrelin once a day for 6 days starting at 24 h after radiation. At the 7th day, rats were euthanized, and blood, liver and the small intestine were removed under sterile conditions. The blood was allowed to clot and following centrifugation, the serum was transferred into pyrogenic free sterile tubes, and stored at −80° C. until further analysis. Liver (0.25 g) was snap-frozen in liquid nitrogen and stored at −80° C. for subsequent bacterial translocation analysis. Small intestine, 10-15 cm of the ileum, was harvested for gut permeability studies, 10 cm of jejunum was collected for histopathology, and the remaining 10 cm jejunal segment each was collected for RNA and protein analyses.
Total RNA extraction and real time PCR. […]
A general note: Real-time PCR tracks product formation cycle by cycle.

The next test has as its system Bcl-xl. Briefly: Western blot of jejunal Bcl-xl protein. The following applies: jejunum, Day 7 after 10 Gy WBI. How it is done:
as §1
Blood and Tissue Collection after WBI. Rats exposed to 10 Gy WBI were treated with 20 nmol/rat human ghrelin once a day for 6 days starting at 24 h after radiation. At the 7th day, rats were euthanized, and blood, liver and the small intestine were removed under sterile conditions. […]
Western blot analysis. […] After overnight incubation with the primary antibodies at 4° C., the membranes were washed with TBS-T Immunoreactive bands were detected using HRP-linked secondary antibody (Southern Biotech, Birmingham, Ala.) and the Enhanced Chemiluminescence (ECL) Western blot detection kit (Amersham, Piscataway, N.J.). The immunoblots were exposed to X-ray film and analyzed with the NIH Image J analysis system. […]
(In general: A western blot detects proteins with antibodies after separation by electrophoresis.)

The subject of a further test is serum glucose. Briefly: Serum glucose level after WBI. The following applies: Day 7 after 10 Gy WBI; WBI reduced it by 30%. The protocol:
as §1
Blood and Tissue Collection after WBI. Rats exposed to 10 Gy WBI were treated with 20 nmol/rat human ghrelin once a day for 6 days starting at 24 h after radiation. At the 7th day, rats were euthanized, and blood, liver and the small intestine were removed under sterile conditions. The blood was allowed to clot and following centrifugation, the serum was transferred into pyrogenic free sterile tubes, and stored at −80° C. until further analysis. Liver (0.25 g) was snap-frozen in liquid nitrogen and stored at −80° C. for subsequent bacterial translocation analysis. […]
Serum glucose and albumin levels. Serum levels of glucose and albumin were determined using Liquid Glucose Hexokinase Reagent Set and Albumin Reagent Set (Pointe Scientific, Inc.) respectively according to manufacturer's instructions.

Turning to “ghrelin (GSS(Octanoyl)FLSPEHQRVQQRKESKKPPAKLQPR; listed as Homo sapiens) [human ghrelin]”, the survival rate in test [1] (20 nmol/rat s.c. once a day for 6 days starting at 24 h after WBI) stood at 63%; in test [1] (20 nmol/rat s.c. once a day for 6 days, treatment initiated at 48 h after WBI), 61%. Besides, in the test on ICAM-1, the “ICAM-1 mRNA expression, inhibition from the vehicle levels” value is 51%. Further, the “Bcl-xl protein levels, restored by” value with Bcl-xl (vehicle 34% reduction) was found to be 75%. For the same substance, the “Bcl-xl/Bax ratio, increase from the vehicle” value in the test with Bcl-xl (vehicle 54% reduction) amounted to 55%. In addition, in the test with serum glucose, the serum glucose result is recorded as “restored to near Sham levels”.
